Experiments:
Nucleic Acid [1] = conditions: at 10 µM
Description: Inhibition of N-acetylphenylalanine-tRNA peptide bond formation by puromycin reaction at 10E-5 M

Nucleic Acid [2] = conditions: at 10 µM; remark: listed apart in the source
Description: Inhibition of N-acetylphenylalanine-tRNA peptide bond formation by fragment reaction at 10e-5 M

Nucleic Acid [3] = conditions: at 1 µM
Description: Inhibition of N-acetylphenylalanine-tRNA peptide bond formation by puromycin reaction at 10E-6 M

| Compound | inhibition (Nucleic Acid [1]) | inhibition (Nucleic Acid [2]) | inhibition (Nucleic Acid [3]) |
| --- | --- | --- | --- |
| CC[C@H]1OC(=O)[C@H](C)[C@@H](O[C@H]2C[C@@](C)(OC)[C@@H](O)[C@H](C)O2)[C@H](C)[C@@H](O[C@@H]2O[C@H](C)C[C@H](N(C)C)[C@H]2O)[C@@](C)(O)C[C@@H](C)[C@H](NC(=O)CCCOc2ccc([N+](=O)[O-])cc2OC)[C@H](C)[C@@H](O)[C@]1(C)O | 25% | 11% | 13% |
| CC[C@H]1OC(=O)[C@H](C)[C@@H](O[C@H]2C[C@@](C)(OC)[C@@H](O)[C@H](C)O2)[C@H](C)[C@@H](O[C@@H]2O[C@H](C)C[C@H](N(C)C)[C@H]2O)[C@@](C)(O)C[C@@H](C)[C@H](NC(=O)COc2cc(N=[N+]=[N-])ccc2CO)[C@H](C)[C@@H](O)[C@]1(C)O | 23% | 0% | 15% |
| CC[C@H]1OC(=O)[C@H](C)[C@@H](O[C@H]2C[C@@](C)(OC)[C@@H](O)[C@H](C)O2)[C@H](C)[C@@H](O[C@@H]2O[C@H](C)C[C@H](N(C)C)[C@H]2O)[C@@](C)(O)C[C@@H](C)[C@H](NC(=O)CNC(=O)CCCOc2ccc([N+](=O)[O-])cc2OC)[C@H](C)[C@@H](O)[C@]1(C)O | 30% | 24% | 18% |
| SPIRAMYCIN | 85% | 48% | 53% |
